Experimental data: US20200276154A1, “COMPOSITION FOR PROMOTING ADIPOCYTE DIFFERENTIATION OR ADIPONECTIN, COMPRISING TRIMETHOXY PHENYL COMPOUND” (AMOREPACIFIC CORPORATION, priority 2017, published 2020)

Key:
Assay type in all cases: cell-based, human
[1] = test system: adiponectin (Adipoq) mRNA in hSCFs; experiment: mRNA expression of adiponectin by real-time quantitative PCR (RT-qPCR); conditions: compared with positive control groups KA 400 μM, CA 60 μM, GC 30 μM
Method: Total RNA was extracted by treating the hSCFs cultured in Example 1 with a composition containing PAC-2 at various concentrations (μM) or KA (400 μM), CA (60 μM) and GC (30 μM) as positive control groups using a TRIzol reagent (Life Technologies, Carlsbad, Calif., USA) according to the manufacturer's instructions. 1 μg of total RNA was utilized to synthesize complementary DNAs (cDNAs) using the RevertAid first strand cDNA synthesis kit (Thermo Scientific, Pittsburgh, Pa., USA). About 1 μg of the cDNA sample and each TaqMan® probe (Life Technologies, Carlsbad, Calif., USA) were diluted in a reaction mixture of the Quantitect probe PCR kit (QIAGEN, Valencia, Calif., USA) and PCR was conducted using the 7500 fast real-time PCR system (Life Technologies, Carlsbad, Calif., USA). The TaqMan® probe was glyceraldehyde-3-phosphate dehydrogenase (GAPDH; Part #4352339E). All data were acquired from three independent experiments and are presented as fold changes relative to the GAPDH control group.

hSCFs = experiment: Quantitative analysis of adipocyte differentiation by Oil Red O (ORO) staining; conditions: 14 days differentiation, compared with KA 400 μM, CA 60 μM, GC 30 μM
Method: Human subcutaneous fat cells (hereinafter, hSCFs) and a subcutaneous preadipocyte differentiation medium were purchased from ZenBio Inc. (NC, USA). The cells were cultured in a humidified 5% CO2 incubator for 7 days.
To induce differentiation, the hSCFs were cultured further for 14 days in a Dulbecco's modified Eagle's medium (DMEM; Lonza, MD, USA) supplemented with 10% fetal bovine serum (FBS, PAA, Pasching, Austria), 10 μg/mL insulin (Sigma-Aldrich, MO, USA), 0.5 mM 3-isobutyl-1-methylxanthine (IBMX; Sigma-Aldrich, St. Louis, Mo., USA), 1 μM dexamethasone (DEX, Sigma-Aldrich, St. Louis, Mo., USA) and 1 μM troglitazone (Sigma-Aldrich, St. Louis, Mo., USA) while replacing the medium every other day.
The hSCFs cultured in Example 1 were differentiated for a total of 14 days by treating with a composition containing PAC-2 at various concentrations (μM) or with KA (400 μM), CA (60 μM) or GC (30 μM) as positive control groups. Then, after washing twice with cold PBS (phosphate-buffered saline), the cells were fixed in 3.7% formaldehyde (Sigma-Aldrich, St. Louis, Mo., USA) for 1 hour. The fixed hSCFs were washed with 60% propylene glycol (Sigma-Aldrich, St. Louis, Mo., USA) in PBS and were treated with Oil Red 0 (0.3% Oil Red 0 in 60% propylene glycol; Sigma-Aldrich, St. Louis, Mo., USA) for 30 minutes. The cells were washed with 85% propylene glycol thrice and then rinsed with tap water. […]

[2] = test system: secreted adiponectin from hSCFs; experiment: Quantitative analysis of adiponectin production by ELISA; conditions: culture medium, compared with positive control groups KA 400 μM, CA 60 μM, GC 30 μM
Method: The hSCFs cultured in Example 1 were treated with KA (400 μM), CA (60 μM) or GC (30 μM) as positive control groups or a composition containing PAC-2 at various concentrations. The culture medium was collected and centrifuged at 13,000 rpm for 15 minutes to remove any debris. The secreted adiponectin was measured using an adiponectin ELISA kit (Enzo Life Sciences, Farmingdale, N.Y., USA) according to the manufacturer's instructions.

COc1cc(/C=C/C(=O)OCc2cc(=O)c(O)co2)cc(OC)c1OC [PAC-2, 3-(3,4,5-trimethoxyphenyl)-acrylic acid 5-hydroxy-4-oxo-4H-pyran-2-ylmethyl ester]
mRNA expression level of adiponectin ([1]; 25 μM): ≥ 3 times
mRNA expression level of adiponectin ([1]; 50 μM): ≥ 5 times
number of Oil Red O stained cells (hSCFs; 25 μM): remarkably increased number of stained cells
number of Oil Red O stained cells (hSCFs; 50 μM): remarkably increased number of stained cells
amount of the secreted adiponectin ([2]; 25 μM): ≥ 3 times
amount of the secreted adiponectin ([2]; 50 μM): ≥ 7 times
